Measured values taken from paper PMC6430017, “Structural and chemical insights into the covalent-allosteric inhibition of the protein kinase Akt” (Chemical Science, 2019).

Molecular target: GRK5 (Homo sapiens, UniProt P34947)
Test: SelectScreen Z'LYTE kinase profiling
Assay type: biochemical
Settings: ATP at apparent KM
Procedure: (§1) protein kinases at a compound concentration of 1 µM. Measurements were performed in duplicates
(§2) and at the particular apparent ATP KM of each individual kinase employing the activity based Z’LYTE®
(§3) kinase assay of the SelectScreen® Kinase Profiling Services (ThermoFisher Scientific).
(§4) kinases at a compound concentration of 1 µM. Measurements were performed in duplicates and at
(§5) the particular apparent ATP KM of each individual kinase employing the activity based Z’LYTE® kinase
(§6) assay of the SelectScreen® Kinase Profiling Services (ThermoFisher Scientific).

Row | SMILES | inhibition at 1 µM [%]
1 | C=CC(=O)Nc1cccc(C(=O)NC2CCN(Cc3ccc(-c4nc5cc[nH]c(=O)c5cc4-c4ccccc4)cc3)CC2)c1 [30b] | -1
2 | C=CC(=O)Nc1cc(NC(=O)NC2CCN(Cc3ccc(-c4nc5cc[nH]c(=O)c5cc4-c4ccccc4)cc3)CC2)ccc1Cl [compound 27] | -2

Molecular target: T1, CHEK1 (CHK1) (Homo sapiens, UniProt O14757)
T1 sequence (O14757 1-476): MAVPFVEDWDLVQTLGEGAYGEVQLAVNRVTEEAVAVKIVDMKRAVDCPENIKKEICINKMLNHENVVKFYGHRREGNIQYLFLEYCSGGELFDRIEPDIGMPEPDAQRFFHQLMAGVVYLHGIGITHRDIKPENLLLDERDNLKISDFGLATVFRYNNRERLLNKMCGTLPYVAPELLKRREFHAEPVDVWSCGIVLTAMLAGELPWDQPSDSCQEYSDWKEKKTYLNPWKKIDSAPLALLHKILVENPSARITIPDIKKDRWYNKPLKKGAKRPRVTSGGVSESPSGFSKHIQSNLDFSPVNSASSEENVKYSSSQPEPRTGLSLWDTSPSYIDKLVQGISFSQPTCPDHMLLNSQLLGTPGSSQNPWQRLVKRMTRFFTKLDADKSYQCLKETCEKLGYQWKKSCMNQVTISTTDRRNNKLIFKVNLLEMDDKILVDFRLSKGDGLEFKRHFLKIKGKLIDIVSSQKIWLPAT
Test: SelectScreen Z'LYTE kinase profiling
Assay type: biochemical
Settings: ATP at apparent KM
Procedure: as §1, §2, §3, §4, §5, §6

Row | SMILES | inhibition at 1 µM [%]
3 | C=CC(=O)Nc1cccc(C(=O)NC2CCN(Cc3ccc(-c4nc5cc[nH]c(=O)c5cc4-c4ccccc4)cc3)CC2)c1 [30b] | 9
4 | C=CC(=O)Nc1cc(NC(=O)NC2CCN(Cc3ccc(-c4nc5cc[nH]c(=O)c5cc4-c4ccccc4)cc3)CC2)ccc1Cl [compound 27] | 8

Molecular target: PAK1 (Homo sapiens, UniProt Q13153)
Test: SelectScreen Z'LYTE kinase profiling
Assay type: biochemical
Settings: ATP at apparent KM
Procedure: as §1, §2, §3, §4, §5, §6

Chain of PAK1 (Q13153 whole entry): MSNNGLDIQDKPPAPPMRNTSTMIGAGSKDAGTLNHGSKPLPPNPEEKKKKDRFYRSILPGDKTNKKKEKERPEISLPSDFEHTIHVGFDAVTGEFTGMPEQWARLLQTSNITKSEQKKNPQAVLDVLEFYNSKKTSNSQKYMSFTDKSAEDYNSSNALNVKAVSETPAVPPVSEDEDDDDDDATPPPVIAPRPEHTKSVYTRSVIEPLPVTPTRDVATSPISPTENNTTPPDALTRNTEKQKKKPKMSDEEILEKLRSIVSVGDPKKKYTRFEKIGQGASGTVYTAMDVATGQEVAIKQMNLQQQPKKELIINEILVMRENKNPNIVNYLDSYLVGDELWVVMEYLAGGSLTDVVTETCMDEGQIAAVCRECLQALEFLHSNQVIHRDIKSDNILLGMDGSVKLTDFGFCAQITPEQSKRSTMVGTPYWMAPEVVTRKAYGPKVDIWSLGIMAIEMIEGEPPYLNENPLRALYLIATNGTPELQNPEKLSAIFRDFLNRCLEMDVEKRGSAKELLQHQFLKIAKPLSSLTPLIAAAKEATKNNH

Row | SMILES | inhibition at 1 µM [%]
5 | C=CC(=O)Nc1cccc(C(=O)NC2CCN(Cc3ccc(-c4nc5cc[nH]c(=O)c5cc4-c4ccccc4)cc3)CC2)c1 [30b] | 4
6 | C=CC(=O)Nc1cc(NC(=O)NC2CCN(Cc3ccc(-c4nc5cc[nH]c(=O)c5cc4-c4ccccc4)cc3)CC2)ccc1Cl [compound 27] | -2

Molecular target: MAPKAPK3 (Homo sapiens, UniProt Q16644)
Test: SelectScreen Z'LYTE kinase profiling
Assay type: biochemical
Settings: ATP at apparent KM
Procedure: as §1, §2, §3, §4, §5, §6

Chain of MAPKAPK3 (Q16644 whole entry): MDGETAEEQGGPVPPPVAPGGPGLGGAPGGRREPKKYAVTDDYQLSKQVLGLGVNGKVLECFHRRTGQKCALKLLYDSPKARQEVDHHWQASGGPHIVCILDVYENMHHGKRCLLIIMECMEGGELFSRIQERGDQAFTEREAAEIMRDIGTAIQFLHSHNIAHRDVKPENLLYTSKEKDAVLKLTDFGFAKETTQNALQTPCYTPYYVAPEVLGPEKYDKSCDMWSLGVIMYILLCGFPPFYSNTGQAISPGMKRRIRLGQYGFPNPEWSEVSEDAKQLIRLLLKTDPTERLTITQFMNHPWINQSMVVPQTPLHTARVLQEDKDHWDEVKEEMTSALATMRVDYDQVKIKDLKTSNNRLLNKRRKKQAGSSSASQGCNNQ

Row | SMILES | inhibition at 1 µM [%]
7 | C=CC(=O)Nc1cccc(C(=O)NC2CCN(Cc3ccc(-c4nc5cc[nH]c(=O)c5cc4-c4ccccc4)cc3)CC2)c1 [30b] | 23
8 | C=CC(=O)Nc1cc(NC(=O)NC2CCN(Cc3ccc(-c4nc5cc[nH]c(=O)c5cc4-c4ccccc4)cc3)CC2)ccc1Cl [compound 27] | 23

Molecular target: PAK4 (Homo sapiens, UniProt O96013)
Test: SelectScreen Z'LYTE kinase profiling
Assay type: biochemical
Settings: ATP at apparent KM
Procedure: as §1, §2, §3, §4, §5, §6

Chain of PAK4 (O96013 whole entry): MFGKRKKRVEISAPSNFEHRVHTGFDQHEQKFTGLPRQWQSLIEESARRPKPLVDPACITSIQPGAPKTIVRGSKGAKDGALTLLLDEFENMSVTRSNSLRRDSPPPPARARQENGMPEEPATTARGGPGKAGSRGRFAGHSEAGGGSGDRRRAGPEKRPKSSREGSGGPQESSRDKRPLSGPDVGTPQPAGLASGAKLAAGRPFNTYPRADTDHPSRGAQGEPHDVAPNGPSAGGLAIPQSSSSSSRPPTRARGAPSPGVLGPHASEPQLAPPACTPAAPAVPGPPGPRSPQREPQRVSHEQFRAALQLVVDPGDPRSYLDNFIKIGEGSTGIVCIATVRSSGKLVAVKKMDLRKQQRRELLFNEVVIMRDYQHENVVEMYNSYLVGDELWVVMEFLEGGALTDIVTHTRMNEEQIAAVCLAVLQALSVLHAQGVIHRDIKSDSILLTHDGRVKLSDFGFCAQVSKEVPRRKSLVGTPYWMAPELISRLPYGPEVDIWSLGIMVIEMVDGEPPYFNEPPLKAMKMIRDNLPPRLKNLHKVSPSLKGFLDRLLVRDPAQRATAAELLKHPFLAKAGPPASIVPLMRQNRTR

Row | SMILES | inhibition at 1 µM [%]
9 | C=CC(=O)Nc1cccc(C(=O)NC2CCN(Cc3ccc(-c4nc5cc[nH]c(=O)c5cc4-c4ccccc4)cc3)CC2)c1 [30b] | 8
10 | C=CC(=O)Nc1cc(NC(=O)NC2CCN(Cc3ccc(-c4nc5cc[nH]c(=O)c5cc4-c4ccccc4)cc3)CC2)ccc1Cl [compound 27] | 16

Molecular target: PKN1 (PRK1) (Homo sapiens, UniProt Q16512)
Test: SelectScreen Z'LYTE kinase profiling
Assay type: biochemical
Settings: ATP at apparent KM
Procedure: as §1, §2, §3, §4, §5, §6

Row | SMILES | inhibition at 1 µM [%]
11 | C=CC(=O)Nc1cccc(C(=O)NC2CCN(Cc3ccc(-c4nc5cc[nH]c(=O)c5cc4-c4ccccc4)cc3)CC2)c1 [30b] | 1
12 | C=CC(=O)Nc1cc(NC(=O)NC2CCN(Cc3ccc(-c4nc5cc[nH]c(=O)c5cc4-c4ccccc4)cc3)CC2)ccc1Cl [compound 27] | 6

Molecular target: T2, SGK2 (Homo sapiens, UniProt Q9HBY8)
T2 sequence (Q9HBY8 1-367): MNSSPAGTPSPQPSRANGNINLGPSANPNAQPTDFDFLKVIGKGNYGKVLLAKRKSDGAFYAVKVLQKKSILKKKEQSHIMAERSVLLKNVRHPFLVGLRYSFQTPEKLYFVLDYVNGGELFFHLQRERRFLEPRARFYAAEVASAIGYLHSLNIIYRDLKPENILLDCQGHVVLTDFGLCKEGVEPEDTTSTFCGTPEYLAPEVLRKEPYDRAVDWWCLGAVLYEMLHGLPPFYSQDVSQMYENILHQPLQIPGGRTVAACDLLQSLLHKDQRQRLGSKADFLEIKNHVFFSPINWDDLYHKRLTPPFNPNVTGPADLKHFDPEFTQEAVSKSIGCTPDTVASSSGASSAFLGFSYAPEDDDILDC
Test: SelectScreen Z'LYTE kinase profiling
Assay type: biochemical
Settings: ATP at apparent KM
Procedure: as §1, §2, §3, §4, §5, §6

Row | SMILES | inhibition at 1 µM [%]
13 | C=CC(=O)Nc1cccc(C(=O)NC2CCN(Cc3ccc(-c4nc5cc[nH]c(=O)c5cc4-c4ccccc4)cc3)CC2)c1 [30b] | 3
14 | C=CC(=O)Nc1cc(NC(=O)NC2CCN(Cc3ccc(-c4nc5cc[nH]c(=O)c5cc4-c4ccccc4)cc3)CC2)ccc1Cl [compound 27] | 4

Molecular target: PLK1 (Homo sapiens, UniProt P53350)
Test: SelectScreen Z'LYTE kinase profiling
Assay type: biochemical
Settings: ATP at apparent KM

Row | SMILES | inhibition at 1 µM [%]
15 | C=CC(=O)Nc1cccc(C(=O)NC2CCN(Cc3ccc(-c4nc5cc[nH]c(=O)c5cc4-c4ccccc4)cc3)CC2)c1 [30b] | 6
16 | C=CC(=O)Nc1cc(NC(=O)NC2CCN(Cc3ccc(-c4nc5cc[nH]c(=O)c5cc4-c4ccccc4)cc3)CC2)ccc1Cl [compound 27] | 1

Molecular target: AMPK A2/B1/G1 (Homo sapiens, UniProt P54646)
Test: SelectScreen Z'LYTE kinase profiling
Assay type: biochemical
Settings: ATP at apparent KM
Procedure: as §1, §2, §3, §4, §5, §6

Chain of AMPK A2/B1/G1 (P54646 whole entry): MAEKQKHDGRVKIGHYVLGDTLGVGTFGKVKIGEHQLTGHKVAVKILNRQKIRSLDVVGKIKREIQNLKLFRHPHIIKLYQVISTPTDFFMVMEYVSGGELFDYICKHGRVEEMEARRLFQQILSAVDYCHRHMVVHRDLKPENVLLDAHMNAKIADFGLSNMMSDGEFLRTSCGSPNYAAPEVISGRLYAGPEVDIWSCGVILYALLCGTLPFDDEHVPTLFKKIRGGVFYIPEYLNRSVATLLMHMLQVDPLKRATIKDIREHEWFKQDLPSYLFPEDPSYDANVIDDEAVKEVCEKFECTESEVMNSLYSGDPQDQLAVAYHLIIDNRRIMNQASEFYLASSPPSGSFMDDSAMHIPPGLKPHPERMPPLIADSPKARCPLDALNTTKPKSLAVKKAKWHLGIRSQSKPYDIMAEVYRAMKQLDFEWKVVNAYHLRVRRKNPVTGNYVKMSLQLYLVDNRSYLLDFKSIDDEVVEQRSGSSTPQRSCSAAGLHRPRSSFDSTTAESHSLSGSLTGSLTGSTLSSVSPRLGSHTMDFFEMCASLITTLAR
Chain of AMPK A2/B1/G1 (Q9Y478 whole entry partner): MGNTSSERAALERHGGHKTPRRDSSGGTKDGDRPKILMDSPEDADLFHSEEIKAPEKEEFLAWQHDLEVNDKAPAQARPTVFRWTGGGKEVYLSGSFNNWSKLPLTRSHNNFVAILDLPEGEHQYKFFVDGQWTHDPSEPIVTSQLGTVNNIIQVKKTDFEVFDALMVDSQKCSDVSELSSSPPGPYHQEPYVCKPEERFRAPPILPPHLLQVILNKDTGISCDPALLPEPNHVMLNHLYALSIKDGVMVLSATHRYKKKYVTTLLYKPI
Chain of AMPK A2/B1/G1 (P54619 whole entry partner): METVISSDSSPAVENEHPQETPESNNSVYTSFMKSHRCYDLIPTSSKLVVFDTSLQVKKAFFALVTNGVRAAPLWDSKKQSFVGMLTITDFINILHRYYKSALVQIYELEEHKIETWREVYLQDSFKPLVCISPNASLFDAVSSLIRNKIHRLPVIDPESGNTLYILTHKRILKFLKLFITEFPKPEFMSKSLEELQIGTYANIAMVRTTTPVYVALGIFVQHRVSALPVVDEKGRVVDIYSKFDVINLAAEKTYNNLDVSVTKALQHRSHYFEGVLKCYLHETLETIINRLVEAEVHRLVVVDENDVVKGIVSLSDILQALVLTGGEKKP

Row | SMILES | inhibition at 1 µM [%]
17 | C=CC(=O)Nc1cccc(C(=O)NC2CCN(Cc3ccc(-c4nc5cc[nH]c(=O)c5cc4-c4ccccc4)cc3)CC2)c1 [30b] | 40
18 | C=CC(=O)Nc1cc(NC(=O)NC2CCN(Cc3ccc(-c4nc5cc[nH]c(=O)c5cc4-c4ccccc4)cc3)CC2)ccc1Cl [compound 27] | 77

Tested on: not listed separately
Test: Phase I metabolic stability assay
Settings: human, liver microsomes
Procedure: For this purpose, we used a microsomal stability assay that is a good predictor for phase I metabolic stability.[50]
Metabolic stability under oxidative conditions was determined by LCMS-based measuring of
degradation of compounds at 3 µM in human and murine liver microsomes over 60 minutes at 37 °C
Calculating the compound half-life t1/2, the in vitro intrinsic clearance CLint is

Row | SMILES | half-life at 1 h, 3 µM [min] | microsomal CLint at 3 µM [µL/min/mg]
19 | C=CC(=O)Nc1cccc(C(=O)NC2CCN(Cc3ccc(-c4nc5cc[nH]c(=O)c5cc4-c4ccccc4)cc3)CC2)c1 [30b] | 58 | 8
20 | C=CC(=O)Nc1cc(NC(=O)NC2CCN(Cc3ccc(-c4nc5cc[nH]c(=O)c5cc4-c4ccccc4)cc3)CC2)ccc1Cl [compound 27] | 19 | 24

Molecular target: T3, PRKCI (PKC iota) (Homo sapiens, UniProt P41743)
T3 sequence (P41743 1-596): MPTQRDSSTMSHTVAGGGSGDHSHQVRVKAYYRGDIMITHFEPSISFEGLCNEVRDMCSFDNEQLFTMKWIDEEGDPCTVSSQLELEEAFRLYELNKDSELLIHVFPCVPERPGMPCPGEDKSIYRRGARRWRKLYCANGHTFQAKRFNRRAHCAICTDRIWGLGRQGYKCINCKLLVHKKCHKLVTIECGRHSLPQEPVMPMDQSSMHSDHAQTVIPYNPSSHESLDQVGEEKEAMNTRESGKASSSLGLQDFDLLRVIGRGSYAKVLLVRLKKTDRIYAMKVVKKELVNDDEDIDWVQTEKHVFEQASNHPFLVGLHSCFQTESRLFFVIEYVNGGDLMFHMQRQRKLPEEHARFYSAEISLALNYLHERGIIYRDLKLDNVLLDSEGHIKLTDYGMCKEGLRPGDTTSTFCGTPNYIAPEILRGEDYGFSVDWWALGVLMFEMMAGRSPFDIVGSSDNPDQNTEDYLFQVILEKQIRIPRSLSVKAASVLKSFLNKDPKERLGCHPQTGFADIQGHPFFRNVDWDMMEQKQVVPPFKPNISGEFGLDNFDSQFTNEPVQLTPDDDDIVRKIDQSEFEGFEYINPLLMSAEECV
Test: SelectScreen Z'LYTE kinase profiling
Assay type: biochemical
Settings: ATP at apparent KM
Procedure: as §1, §2, §3, §4, §5, §6

Row | SMILES | inhibition at 1 µM [%]
21 | C=CC(=O)Nc1cccc(C(=O)NC2CCN(Cc3ccc(-c4nc5cc[nH]c(=O)c5cc4-c4ccccc4)cc3)CC2)c1 [30b] | -9
22 | C=CC(=O)Nc1cc(NC(=O)NC2CCN(Cc3ccc(-c4nc5cc[nH]c(=O)c5cc4-c4ccccc4)cc3)CC2)ccc1Cl [compound 27] | 5

Molecular target: CHEK2 (CHK2) (Homo sapiens, UniProt O96017)
Test: SelectScreen Z'LYTE kinase profiling
Assay type: biochemical
Settings: ATP at apparent KM
Procedure: as §1, §2, §3, §4, §5, §6

Row | SMILES | inhibition at 1 µM [%]
23 | C=CC(=O)Nc1cccc(C(=O)NC2CCN(Cc3ccc(-c4nc5cc[nH]c(=O)c5cc4-c4ccccc4)cc3)CC2)c1 [30b] | -12
24 | C=CC(=O)Nc1cc(NC(=O)NC2CCN(Cc3ccc(-c4nc5cc[nH]c(=O)c5cc4-c4ccccc4)cc3)CC2)ccc1Cl [compound 27] | 1

Molecular target: T4, DCAMKL2 (DCK2) (Homo sapiens, UniProt Q8N568)
T4 sequence (Q8N568 1-766): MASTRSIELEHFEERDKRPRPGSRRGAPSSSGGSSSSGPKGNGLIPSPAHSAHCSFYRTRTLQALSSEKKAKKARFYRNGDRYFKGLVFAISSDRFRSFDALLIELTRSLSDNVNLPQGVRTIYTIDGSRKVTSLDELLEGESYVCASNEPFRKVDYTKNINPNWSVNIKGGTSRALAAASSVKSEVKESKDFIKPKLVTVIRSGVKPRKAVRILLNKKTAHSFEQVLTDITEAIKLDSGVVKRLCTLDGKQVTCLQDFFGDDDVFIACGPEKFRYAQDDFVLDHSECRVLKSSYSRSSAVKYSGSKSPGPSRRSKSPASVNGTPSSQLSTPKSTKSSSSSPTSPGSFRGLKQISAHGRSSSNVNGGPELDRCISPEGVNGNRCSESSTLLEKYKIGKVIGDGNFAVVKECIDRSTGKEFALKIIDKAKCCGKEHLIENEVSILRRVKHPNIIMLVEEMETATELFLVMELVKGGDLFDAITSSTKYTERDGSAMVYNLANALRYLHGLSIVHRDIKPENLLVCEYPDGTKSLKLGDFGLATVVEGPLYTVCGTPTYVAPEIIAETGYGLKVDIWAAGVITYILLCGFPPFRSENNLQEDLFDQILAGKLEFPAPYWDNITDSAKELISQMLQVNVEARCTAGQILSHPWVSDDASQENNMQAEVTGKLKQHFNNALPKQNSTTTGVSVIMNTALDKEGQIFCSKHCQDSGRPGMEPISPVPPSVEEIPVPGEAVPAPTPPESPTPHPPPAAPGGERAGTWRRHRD
Test: SelectScreen Z'LYTE kinase profiling
Assay type: biochemical
Settings: ATP at apparent KM
Procedure: as §1, §2, §3, §4, §5, §6

Row | SMILES | inhibition at 1 µM [%]
25 | C=CC(=O)Nc1cccc(C(=O)NC2CCN(Cc3ccc(-c4nc5cc[nH]c(=O)c5cc4-c4ccccc4)cc3)CC2)c1 [30b] | 3
26 | C=CC(=O)Nc1cc(NC(=O)NC2CCN(Cc3ccc(-c4nc5cc[nH]c(=O)c5cc4-c4ccccc4)cc3)CC2)ccc1Cl [compound 27] | -1

Molecular target: TEK (Tie2) (Homo sapiens, UniProt Q02763)
Test: SelectScreen Z'LYTE kinase profiling
Assay type: biochemical
Settings: ATP at apparent KM
Procedure: as §1, §2, §3, §4, §5, §6

Chain of TEK (Tie2) (Q02763 23-1124): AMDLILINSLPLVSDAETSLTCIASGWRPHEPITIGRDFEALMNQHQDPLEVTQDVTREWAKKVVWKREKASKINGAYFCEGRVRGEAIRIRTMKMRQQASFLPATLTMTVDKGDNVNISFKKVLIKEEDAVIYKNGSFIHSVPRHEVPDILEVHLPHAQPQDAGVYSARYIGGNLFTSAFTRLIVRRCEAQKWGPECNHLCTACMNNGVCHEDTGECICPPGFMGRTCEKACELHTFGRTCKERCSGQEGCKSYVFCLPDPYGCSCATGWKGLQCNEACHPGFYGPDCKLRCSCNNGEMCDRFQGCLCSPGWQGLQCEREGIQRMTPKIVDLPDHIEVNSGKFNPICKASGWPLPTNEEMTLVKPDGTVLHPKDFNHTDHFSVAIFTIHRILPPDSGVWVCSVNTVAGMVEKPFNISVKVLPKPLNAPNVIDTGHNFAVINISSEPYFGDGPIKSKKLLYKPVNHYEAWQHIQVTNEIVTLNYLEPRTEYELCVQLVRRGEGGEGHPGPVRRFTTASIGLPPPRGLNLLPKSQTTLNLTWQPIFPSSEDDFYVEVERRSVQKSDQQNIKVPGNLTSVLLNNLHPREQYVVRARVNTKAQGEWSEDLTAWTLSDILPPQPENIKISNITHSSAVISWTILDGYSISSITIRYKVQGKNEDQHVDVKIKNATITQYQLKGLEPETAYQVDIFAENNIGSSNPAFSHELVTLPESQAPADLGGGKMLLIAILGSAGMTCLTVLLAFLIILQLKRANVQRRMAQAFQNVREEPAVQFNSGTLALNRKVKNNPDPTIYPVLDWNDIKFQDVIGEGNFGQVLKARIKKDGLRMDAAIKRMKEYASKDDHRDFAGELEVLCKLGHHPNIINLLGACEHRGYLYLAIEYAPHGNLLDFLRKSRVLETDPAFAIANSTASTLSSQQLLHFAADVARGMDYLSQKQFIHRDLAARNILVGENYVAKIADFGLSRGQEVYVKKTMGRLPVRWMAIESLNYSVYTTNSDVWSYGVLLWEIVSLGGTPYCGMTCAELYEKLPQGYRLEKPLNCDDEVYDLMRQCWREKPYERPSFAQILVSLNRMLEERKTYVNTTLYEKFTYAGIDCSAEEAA

Row | SMILES | inhibition at 1 µM [%]
27 | C=CC(=O)Nc1cccc(C(=O)NC2CCN(Cc3ccc(-c4nc5cc[nH]c(=O)c5cc4-c4ccccc4)cc3)CC2)c1 [30b] | 6
28 | C=CC(=O)Nc1cc(NC(=O)NC2CCN(Cc3ccc(-c4nc5cc[nH]c(=O)c5cc4-c4ccccc4)cc3)CC2)ccc1Cl [compound 27] | 5

Molecular target: ABL1 (Homo sapiens, UniProt P00519)
Test: SelectScreen Z'LYTE kinase profiling
Assay type: biochemical
Settings: ATP at apparent KM
Procedure: as §1, §2, §3, §4, §5, §6

Chain of ABL1 (P00519 whole entry): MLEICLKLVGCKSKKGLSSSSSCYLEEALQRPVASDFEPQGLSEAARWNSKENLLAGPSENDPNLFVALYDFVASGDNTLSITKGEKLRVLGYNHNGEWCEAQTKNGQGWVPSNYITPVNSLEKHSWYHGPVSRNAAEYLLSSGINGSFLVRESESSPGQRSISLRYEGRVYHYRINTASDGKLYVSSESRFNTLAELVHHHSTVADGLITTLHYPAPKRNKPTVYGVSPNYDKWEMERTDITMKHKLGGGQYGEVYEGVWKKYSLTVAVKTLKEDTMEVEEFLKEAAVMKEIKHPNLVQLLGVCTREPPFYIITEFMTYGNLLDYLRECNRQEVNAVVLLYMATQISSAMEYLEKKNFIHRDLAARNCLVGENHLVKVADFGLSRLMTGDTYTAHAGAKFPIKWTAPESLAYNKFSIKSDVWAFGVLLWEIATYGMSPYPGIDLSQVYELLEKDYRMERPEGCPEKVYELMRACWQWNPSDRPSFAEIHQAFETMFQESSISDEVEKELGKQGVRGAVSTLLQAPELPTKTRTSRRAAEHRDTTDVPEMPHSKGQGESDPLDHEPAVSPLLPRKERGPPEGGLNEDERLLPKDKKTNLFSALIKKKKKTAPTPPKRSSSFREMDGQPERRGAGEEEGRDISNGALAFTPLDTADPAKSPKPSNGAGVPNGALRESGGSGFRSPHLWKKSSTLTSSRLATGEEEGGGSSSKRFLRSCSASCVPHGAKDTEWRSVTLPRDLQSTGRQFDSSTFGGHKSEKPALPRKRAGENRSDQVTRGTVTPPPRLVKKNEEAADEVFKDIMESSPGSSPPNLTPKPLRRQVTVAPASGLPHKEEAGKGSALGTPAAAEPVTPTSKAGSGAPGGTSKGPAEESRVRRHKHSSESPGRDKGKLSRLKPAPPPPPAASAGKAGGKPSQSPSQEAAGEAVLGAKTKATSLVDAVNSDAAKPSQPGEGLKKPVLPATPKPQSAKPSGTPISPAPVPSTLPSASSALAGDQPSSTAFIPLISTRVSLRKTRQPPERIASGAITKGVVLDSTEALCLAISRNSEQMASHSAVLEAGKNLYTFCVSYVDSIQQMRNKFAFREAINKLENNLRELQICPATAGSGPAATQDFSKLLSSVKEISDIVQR

Row | SMILES | inhibition at 1 µM [%]
29 | C=CC(=O)Nc1cccc(C(=O)NC2CCN(Cc3ccc(-c4nc5cc[nH]c(=O)c5cc4-c4ccccc4)cc3)CC2)c1 [30b] | 3
30 | C=CC(=O)Nc1cc(NC(=O)NC2CCN(Cc3ccc(-c4nc5cc[nH]c(=O)c5cc4-c4ccccc4)cc3)CC2)ccc1Cl [compound 27] | 3
